The values that follow come from patent US10093623B2, “Cyclic amides as MetAP-2 inhibitors” (MERCK PATENT GmbH, priority 2012, dated 2018).

Structures are written as SMILES.

This test addresses MetAP-2 (Homo sapiens, UniProt P50579). As to the kind of experiment: MetAP-2 activity measurement (coupled enzymatic reactions, Met-Arg-Ser substrate, dianisidine detection at 450 nm). In kind it is biochemical. The conditions noted are these: Inhibition of MetAP-2; read-out: IC50 enzyme. An outline of the steps: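 Coupled continuous assay with Met-Arg-Ser tripeptide substrate: released methionine oxidised by L-amino acid oxidase to give H2O2, which peroxidase uses to oxidise dianisidine, followed at 450 nm. Activity taken as slope of absorbance versus time over the visually linear region; dianisidine extinction coefficient converts to mol Met per time.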

Sequence of MetAP-2 (P50579 whole entry, species assumed): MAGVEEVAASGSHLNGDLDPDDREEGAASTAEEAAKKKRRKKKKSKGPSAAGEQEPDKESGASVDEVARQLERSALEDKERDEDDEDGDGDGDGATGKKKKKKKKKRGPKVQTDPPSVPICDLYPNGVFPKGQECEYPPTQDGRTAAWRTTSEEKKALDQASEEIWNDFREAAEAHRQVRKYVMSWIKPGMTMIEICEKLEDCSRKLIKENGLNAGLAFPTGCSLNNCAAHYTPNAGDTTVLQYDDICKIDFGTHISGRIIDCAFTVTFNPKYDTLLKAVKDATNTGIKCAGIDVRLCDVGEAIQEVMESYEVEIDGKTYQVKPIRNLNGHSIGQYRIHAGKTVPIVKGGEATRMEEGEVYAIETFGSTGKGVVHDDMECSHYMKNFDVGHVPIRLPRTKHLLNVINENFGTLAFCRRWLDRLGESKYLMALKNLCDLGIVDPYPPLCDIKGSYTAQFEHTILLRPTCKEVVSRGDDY

The IC50 is the concentration at which inhibition is half-maximal. For the compound `CC(C)NC(=O)c1cc2cc(N3CC[C@](O)(C(=O)NCc4cc(F)cc(Cl)c4)C3=O)ccc2[nH]1` [B97, N-Isopropyl-5-[(S)-3-(3-chloro-5-fluorobenzylcarbamoyl)-3-hydroxy-2-oxopyrrolidin-1-yl]-1H-indole-2-carboxamide], the half-inhibitory concentration (IC50) lay within 10 to 1000 nM.

For `CC(=O)N1CCC2(CC1)CN(c1ccccc1)C(=O)[C@@]2(O)C(=O)NCc1cc(F)cc(Cl)c1` [A71, N-(3-Chloro-5-fluorobenzyl)-(S)-8-acetyl-4-hydroxy-3-oxo-2-phenyl-2,8-diazaspiro[4.5]decane-4-carboxamide], the half-inhibitory concentration (IC50) was more than 10000 nM.

As to `O=C(N1Cc2ccccc2C1)C1(O)CCN(c2ccccc2)C1=O` (stereo not drawn) [A267, 3-(1,3-dihydroisoindole-2-carbonyl)-3-hydroxy-1-phenylpyrrolidin-2-one], the IC50 lay within 1000 to 10000 nM.

As to `O=C(NCc1cc(F)cc(Cl)c1)C1(O)CCCN(c2ccccc2)C1=O` (stereo not drawn) [A65, N-(3-Chloro-5-fluorobenzyl)-3-hydroxy-2-oxo-1-phenylpiperidine-3-carboxamide], the IC50 was in the range of 10 to 1000 nM.

In the case of `O=C(O)CN1CCC(O)(C(=O)NCc2cc(F)cc(Cl)c2)C1=O` (stereo not drawn) [A203, [3-(3-Chloro-5-fluorobenzylcarbamoyl)-3-hydroxy-2-oxopyrrolidin-1-yl]-acetic acid], the IC50 was more than 10000 nM.

`O=C1CCc2cc(N3CC[C@](O)(C(=O)NCc4ccc(Cl)c(F)c4)C3=O)ccc2N1` [A265, N-(4-Chloro-3-fluorobenzyl)-(S)-3-hydroxy-2-oxo-1-(2-oxo-1,2,3,4-tetrahydroquinolin-6-yl)-pyrrolidine-3-carboxamide]: the IC50 was 1000 to 10000 nM.

Regarding `O=C(NCc1cc(F)cc(Cl)c1)C1(O)CCN(C[C@H]2CC[C@H](C(=O)O)CC2)C1=O` (stereo partly drawn) [A227, 4-[3-(3-Chloro-5-fluorobenzyl-carbamoyl)-3-hydroxy-2-oxo-pyrrolidin-1-ylmethyl]cyclo-hexanecarboxylic acid], the IC50 is 1000 to 10000 nM.

On to `O=C1CCc2cc(N3CCC(O)(C(=O)NCCc4cc(F)cc(Cl)c4)C3=O)ccc2N1` (stereo not drawn) [A137, N-[2-(3-Chloro-5-fluorophenyl)-ethyl]-3-hydroxy-2-oxo-1-(2-oxo-1,2,3,4-tetrahydroquinolin-6-yl)-pyrrolidine-3-carboxamide], for which the concentration for half-maximal inhibition (IC50) was in the range of 10 to 1000 nM.

As for `O=C(NC1CCC1)c1cccc(N2CCC(O)(C(=O)NCc3cc(F)cc(Cl)c3)C2=O)c1` (stereo not drawn) [A76, N-(3-Chloro-5-fluorobenzyl)-1-(3-cyclobutylcarbamoylphenyl)-3-hydroxy-2-oxopyrrolidine-3-carboxamide], the IC50 lay within 10 to 1000 nM.

Turning to `O=C(NCc1cccc(F)c1)[C@]1(O)CCCN(Cc2cccc(F)c2F)C1=O` [A261, N-(3-Fluorobenzyl)-(R)-1-(2,3-difluorobenzyl)-3-hydroxy-2-oxo-piperidine-3-carboxamide], the half-inhibitory concentration (IC50) is more than 10000 nM.

With `NC(=O)c1cccc(N2CCC(O)(C(=O)NCc3cc(F)cc(F)c3)C2=O)c1` (stereo not drawn) [A178, N-(3,5-Difluorobenzyl)-1-(3-carbamoylphenyl)-3-hydroxy-2-oxopyrrolidine-3-carboxamide], the concentration for half-maximal inhibition (IC50) lay within 10 to 1000 nM.

In the case of `CNC(=O)c1cccc(N2CC[C@](O)(C(=O)NCc3cc(F)cc(Cl)c3)C2=O)c1` [A161, N-(3-Chloro-5-fluorobenzyl)-(S)-3-hydroxy-1-(3-methyl-carbamoylphenyl)-2-oxo-pyrrolidine-3-carboxamide], the concentration for half-maximal inhibition (IC50) was in the range of 10 to 1000 nM.

Take `O=C(NCc1ccc(F)cc1)C1(O)CCCN(Cc2ccc(F)c(F)c2)C1=O` (stereo not drawn) [A257, N-(4-Fluorobenzyl)-1-(3,4-difluorobenzyl)-3-hydroxy-2-oxo-piperidine-3-carboxamide]: the IC50 fell in the range of 1000 to 10000 nM.

In the case of `O=C(c1cc2cc(N3CC[C@](O)(C(=O)NCc4cc(F)cc(Cl)c4)C3=O)ccc2[nH]1)N1CCNCC1` [B126, N-(3-Chloro-5-fluorobenzyl)-(S)-3-hydroxy-2-oxo-1-[2-(piperazin-1-carbonyl)-1H-indol-5-yl]-pyrrolidine-3-carboxamide], the IC50 lay within 10 to 1000 nM.

Turning to `O=C(NCc1cc(F)cc(Cl)c1)[C@]1(O)CCCCN(c2ccccc2)C1=O` [A67, N-(3-chloro-5-fluorobenzyl)-(R)-3-hydroxy-2-oxo-1-phenylazepane-3-carboxamide], the IC50 is more than 10000 nM.

`O=C(O)CCN1CCC(O)(C(=O)NCc2cc(F)cc(Cl)c2)C1=O` (stereo not drawn) [A271, 3-[3-(3-Chloro-5-fluorobenzylcarbamoyl)-3-hydroxy-2-oxopyrrolidin-1-yl]-propionic acid]: the IC50 was more than 10000 nM.

On to `N#Cc1c[nH]c2ccc(N3CC[C@](O)(C(=O)NCc4cc(F)cc(Cl)c4)C3=O)cc12` [A222, N-(3-Chloro-5-fluorobenzyl)-(S)-1-(3-cyano-1H-indol-5-yl)-3-hydroxy-2-oxopyrrolidine-3-carboxamide], for which the half-maximal inhibitory concentration (IC50) fell in the range of 10 to 1000 nM.

Turning to `N#CCn1cc(N2CCC(O)(C(=O)NCc3cc(F)cc(Cl)c3)C2=O)cn1` (stereo not drawn) [B87, N-(3-Chloro-5-fluorobenzyl)-1-(1-cyanomethyl-1H-pyrazol-4-yl)-3-hydroxy-2-oxopyrrolidine-3-carboxamide], the IC50 lay in the range of 10 to 1000 nM.

As for `O=C(NCc1cc(F)cc(Cl)c1)[C@@]1(O)CCN(c2ccc3[nH]cc(C(F)(F)F)c3c2)C1=O` [B74, N-(3-Chloro-5-fluorobenzyl)-(S)-3-hydroxy-2-oxo-1-(3-trifluoro-methyl-1H-indol-5-yl)pyrrolidine-3-carboxamide], the concentration for half-maximal inhibition (IC50) fell in the range of 10 to 1000 nM.

With `O=C1Nc2ccc(N3CC[C@](O)(C(=O)NCc4cc(F)cc(Cl)c4)C3=O)cc2C1(F)F` [A286, N-(3-Chloro-5-fluorobenzyl)-(S)-1-(3,3-difluoro-2-oxo-2,3-dihydro-1H-indol-5-yl)-3-hydroxy-2-oxopyrrolidine-3-carboxamide], the IC50 is 10 to 1000 nM.

For the compound `OC1(CNCc2cc(F)cc(F)c2)CCCN(Cc2ccccc2)C1` (stereo not drawn) [B44, 1-Benzyl-3-[(3,5-difluorobenzylamino)methyl]-piperidin-3-ol], the half-maximal inhibitory concentration (IC50) was more than 10000 nM.

For `COc1ccc(CN2CCC(O)(C(=O)NCc3cc(F)cc(Cl)c3)C2=O)cc1` (stereo not drawn) [A135, N-(3-Chloro-5-fluorobenzyl)-3-hydroxy-1-(4-methoxybenzyl)-2-oxopyrrolidine-3-carboxamide], the IC50 was 10 to 1000 nM.

Regarding `O=C1N(c2ccccc2)CC[C@@]1(O)CNCc1cc(F)cc(Cl)c1` [B58, (R)-3-[(3-Chloro-5-fluorobenzylamino)methyl]-3-hydroxy-1-phenylpyrrolidin-2-one], the IC50 is 1000 to 10000 nM.

For `CN(c1cccc(N2CC[C@@](O)(C(=O)NCc3cc(F)cc(Cl)c3)C2=O)c1)S(C)(=O)=O` [A166, N-(3-Chloro-5-fluorobenzyl)-(R)-3-hydroxy-1-[3-(methane-sulfonylmethylamino)phenyl]-2-oxopyrrolidine-3-carboxamide], the IC50 lay in the range of 1000 to 10000 nM.

Regarding `O=C(O)c1cc2cc(N3CC[C@](O)(C(=O)NCc4cc(F)cc(Cl)c4)C3=O)ccc2[nH]1` [B84, 5-[(S)-3-(3-Chloro-5-fluorobenzylcarbamoyl)-3-hydroxy-2-oxopyrrolidin-1-yl]-1H-indole-2-carboxylic acid], the IC50 is 10 to 1000 nM.

With `O=C(NCc1cc(F)cc(Cl)c1)[C@@]1(O)CCN(c2ccc3[nH]c(=O)ccc3c2)C1=O` [B40, N-(3-Chloro-5-fluorobenzyl)-(S)-3-hydroxy-2-oxo-1-(2-oxo-1,2-dihydroquinolin-6-yl)pyrrolidine-3-carboxamide], the IC50 lay within 10 to 1000 nM.

With `Cc1cc(CNC(=O)C2(O)CCCN(Cc3ccc(F)c(F)c3)C2=O)no1` (stereo not drawn) [A258, N-(5-Methylisoxazol-3-ylmethyl)-1-(3,4-difluorobenzyl)-3-hydroxy-2-oxopiperidine-3-carboxamide], the IC50 is more than 10000 nM.

In the case of `O=C1CCc2cc(N3CC[C@](O)(C(=O)NCCc4cc(F)cc(F)c4)C3=O)ccc2N1` [A221, N-[2-(3,5-Difluorophenyl)ethyl]-(S)-3-hydroxy-2-oxo-1-(2-oxo-1,2,3,4-tetrahydroquinolin-6-yl)-pyrrolidine-3-carboxamide], the concentration for half-maximal inhibition (IC50) fell in the range of 10 to 1000 nM.

`CC(C)OC(=O)C1(O)CCN(C(=O)OCc2ccccc2)C1=O` (stereo not drawn) [B53, 1-Benzyl 3-isopropyl 3-hydroxy-2-oxopyrrolidine-1,3-dicarboxylate]: the IC50 is more than 10000 nM.

For `O=C(NCc1cc(F)cc(Cl)c1)C1(O)CCN(Cc2cc[nH]n2)C1=O` (stereo not drawn) [A277, N-(3-Chloro-5-fluorobenzyl)-3-hydroxy-2-oxo-1-(1H-pyrazol-3-ylmethyl)pyrrolidine-3-carboxamide], the IC50 lay in the range of 10 to 1000 nM.

Consider `O=C(NCc1ccc(F)cc1)[C@@]1(O)CCCN(Cc2cccc(F)c2F)C1=O` [A255, N-(4-Fluorobenzyl)-(S)-1-(2,3-difluorobenzyl)-3-hydroxy-2-oxo-piperidine-3-carboxamide], for which the IC50 was in the range of 1000 to 10000 nM.

Turning to `O=C(NCc1cccc(F)c1)[C@@]1(O)CCCN(Cc2cccc(F)c2F)C1=O` [A254, N-(3-Fluorobenzyl)-(S)-1-(2,3-difluorobenzyl)-3-hydroxy-2-oxo-piperidine-3-carboxamide], the concentration for half-maximal inhibition (IC50) fell in the range of 10 to 1000 nM.

`CNC(=O)c1cc2cc(N3CCC(O)(C(=O)NCc4cc(F)cc(Cl)c4)C3=O)ccc2o1` (stereo not drawn) [A146, N-(3-Chloro-5-fluorobenzyl)-3-hydroxy-1-(2-methylcarbamoyl-benzofuran-5-yl)-2-oxo-pyrrolidine-3-carboxamide]: the IC50 lay in the range of 10 to 1000 nM.

Regarding `O=C(NCc1cc(F)cc(Cl)c1)[C@@]1(O)CCN(c2cnc3[nH]ncc3c2)C1=O` [B75, N-(3-Chloro-5-fluorobenzyl)-(S)-3-hydroxy-2-oxo-1-(1H-pyrazolo[3,4-b]pyridin-5-yl)-pyrrolidine-3-carboxamide], the half-maximal inhibitory concentration (IC50) was in the range of 10 to 1000 nM.

Regarding `O=C1N(Cc2cccc(F)c2F)CCC[C@]1(O)CNCc1cccc(F)c1` [B22, (S)-1-(2,3-Difluorobenzyl)-3-[(3-fluorobenzylamino)methyl]-3-hydroxypiperidin-2-one], the 50% inhibitory concentration (IC50) was 10 to 1000 nM.

For `CN(c1cccc(N2CCC(O)(C(=O)NCc3cc(F)cc(Cl)c3)C2=O)c1)S(C)(=O)=O` (stereo not drawn) [A73, N-(3-Chloro-5-fluorobenzyl)-3-hydroxy-1-[3-(methanesulfonyl-methylamino)phenyl]-2-oxo-pyrrolidine-3-carboxamide], the 50% inhibitory concentration (IC50) was in the range of 10 to 1000 nM.
